Reference: patent US20070212772A1, “RHIZOBIUM LEGUMINOSARUM STRAIN AND USE THEREOF AS PLANT INOCULANT” (priority 2005, published 2007)

System: pea (cultivar 'Mozart')
Experiment: Growth chamber pot test of Rhizobium strains on pea, biomass and nitrogen in plant tissue (Experiment 1)
Assay type: in vivo
Parameters: Total Nitrogen per Shoot: unit not given here
Conditions: 35 days; for % Nitrogen: shoot tissue
Method: • 1) To evaluate eight previously untested Rhizobium strains for their ability to enhance biomass accumulation and nitrogen in legume plant tissue. These eight strains are evaluated against known strains PBI #108 and PBI#101. Note that PBI #108 is a commercial strain of Rhizobium leguminosarum that can be obtained from the Australian Legume Inoculants Research Unit of the New South Wales Agriculture Horticultural Research & Advisory Station, Locked Bag 26, Gosford, New South Wales, 2250, Australia under the deposit number ALIRU SU303. PBI #101 is a strain available from the USDA under deposit number 2449. Experimental Design: Factorial Design: 2 Soil Types (Aberdeen soil, Kyle soil) • 1 Pea seed Cultivar (‘Mozart’) • 12 Seed Treatments (Uninoculated, Nitrogen, Eight untested strains, PBI #108, PBI #101) • Randomized Block. Strain Selection Criteria: • 1) Collected field soil was sifted through a ¼ inch screen to remove any lumps of soil, roots, other plant material, sticks, etc. The soil was then spread out to dry for a period of one week and then placed into plastic bins until needed. • 2) Pots (4-½ inch×5 inch deep) were then labeled according to treatment. A sterile square pieces of spun polyester (black landscape fabric) was then placed into the bottom of each of the pots to prevent the sand/soil mixture from draining out through the pots drainage holes. • 3) A 50% mixture of Kyle soil/silica sand or 50% Aberdeen soil/silica sand (Unimum Industries—industrial quartz) was used as a potting media. • 4) After filling each pot with the sand/soil mixture each pot was placed into a large plastic Ziploc™ bag. • 5) One day before seeding each pot was watered with 150 ml of tap water (non-sterile) and the bags were sealed until seeded. • 6) On the day of seeding 5.5 kg of pea seed—cultivar ‘Mozart’—was divided up into eleven 500 gram amounts and surfaced sterilized via the following method: • a) Place 500 grams of seed into a 2 liter glass Erlenmeyer flask • b) Cover the seeds with 95% Ethanol, let stand 60 seconds then drain. • c) Add a fresh preparation of a 50% bleach solution (1000 mls into 1000 mls water-2.6% NaOCl active), add seed, shake and let stand 5 minutes, then drain. • d) Rinse with 4 changes of R.O. water (non-sterile) followed by one rinse with sterile R.O. water. • 7) After surface sterilization each 500 g amount of seed was spread into an aluminum foil pan lined with sterile paper towel and blotted dry and then transferred into clean large Ziploc™ bags. • 8) After inoculation uninoculated and inoculated pea seeds were planted. Five pea seeds were placed into each pot 2 inches below the surface. Spoons and forceps used to plant the seed were washed and dried thoroughly between treatments. 9) The bags were then sealed and placed into a growth chamber that was set for the following conditions: [table] • 10) Each pot was placed into a plastic bin in a randomized block design (two bins contained one pot of each of the 24 treatments). A total of 20 bins were used to hold all of the treatments. Three times a week (Monday's, Wednesdays and Fridays) each plastic bin was moved one bin position to the right. This was done to ensure differences in light intensity/quality or temperature were consistent for each of the treatments inside the growth chamber. • 11) Bags were kept fully closed until 50% emergence was observed, then fully opened. • 12) Plants were checked daily and watered as required using tap water. • 13) After 35 days plants were photographed (digital image file) and then harvested.

Nitrogen
Shoot dry weights (mean) (Aberdeen soil): 0.45 grams per shoot | Total Nitrogen per Shoot (Aberdeen soil): 0.0144 | % Nitrogen (Aberdeen soil): 3.18% | Shoot dry weights (mean) (Kyle soil): 0.46 grams per shoot | Total Nitrogen per Shoot (Kyle soil): 0.0131 | Visual Assessment of Plant Color, Ranking Based on Color (Kyle soil, ranked from darkest green (1) to yellow/green (12)): 1 | % Nitrogen (Kyle soil): 2.80%
